Publication PMC7221519, “Synthesis and Evaluation of [^18F]FEtLos and [^18F]AMBF3Los as Novel ^18F-Labelled Losartan Derivatives for Molecular Imaging of Angiotensin II Type 1 Receptors” (Molecules, 2020)
Values joined by “and” are separate entries in the source; they are usually repeats but may differ in a detail not shown here. Identical values can stand only once. Like-named read-outs stand apart in the source and are kept apart here. Each block holds one compound with its values, some of them ahead of it.

Legend:
human AT1R = biological target: T1, human AT1R (Homo sapiens, UniProt P30556); experiment: Competition binding assay in membranes containing human AT1R, [125I]-(Sar1,Ile8)-Angiotensin II as radioligand; conditions: human AT1R membranes from CHO-K1 cells, displacement of [125I]-(Sar1,Ile8)-Angiotensin II, n = 3
T1 construct: purchased Perkin Elmer (Waltham, MA, USA); host or cells: CHO-K1 cells (recombinant membrane preparation)
T1 sequence (P30556 1-359): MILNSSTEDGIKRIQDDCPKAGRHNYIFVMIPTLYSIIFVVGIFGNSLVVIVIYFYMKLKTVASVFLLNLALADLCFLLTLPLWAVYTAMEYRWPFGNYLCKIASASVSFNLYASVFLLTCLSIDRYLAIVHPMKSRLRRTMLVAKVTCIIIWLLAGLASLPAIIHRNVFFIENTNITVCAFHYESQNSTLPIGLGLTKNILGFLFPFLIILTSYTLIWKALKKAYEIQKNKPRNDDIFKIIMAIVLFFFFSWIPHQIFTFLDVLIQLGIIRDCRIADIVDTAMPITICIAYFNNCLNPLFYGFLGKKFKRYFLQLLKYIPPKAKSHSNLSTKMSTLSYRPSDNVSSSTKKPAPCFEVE
Description: The assays were performed using membranes expressing the human angiotensin II type 1 receptor from CHO-K1 cells, purchased from Perkin Elmer (Waltham, MA, USA). […] The hot ligand [^125I]-(Sar1,Ile8)-Angiotensin II (81.4 TBq/mmol) was also purchased from Perkin Elmer (USA). The Multiscreen MSFCN6B50 96-well plates were used for this assay. The procedure was based on the recommended assay conditions from Perkin Elmer (Waltham, MA, USA) and procedures previously described for other AT1R ligands [22, 23]. Briefly, the 96-well plate was preincubated for 1–2 h at 4 °C with 200 μL of 0.5% BSA (Bovine Serum Albumin) followed by washing (3 times) with an assay buffer. Next, 150 µL of the membranes, diluted (1:150) in the buffer assay (50 mM Tris-HCl pH 7.4, 5 mM MgCl2) to a final concentration of 0.6 μg/well, were added to the wells followed by the addition of cold (25 µL) and hot ligand (25 µL). The plate was incubated for 60 min at 27 °C under stirring and at the end of the experiment all wells were washed (9 times) with ice-cold wash buffer (50 mM Tris-HCl pH 7.4) using vacuum. Afterwards, membranes were punched out and counted in a Perkin Elmer (Waltham, MA, USA) Wizard2 2480 automatic gamma counter. The Ki values were calculated by a non-linear curve fitting using GraphPad Prism 7.01 Software (San Diego, CA, USA). The experiment was done in triplicate.

[1] = set-up: method as in earlier work; conditions: cited from earlier work
CHO-AT1R cells = experiment: Cell binding (uptake) assay in CHO-AT1R and CHO cells; assay type: cell-based, Chinese hamster; conditions: 60 min at 4 °C; for AT1R-specific binding to CHO-AT1R cells (blocking with losartan potassium): losartan potassium 100 µM/well
Description: The cell binding assays were performed based on previous reports with modifications. […] To saturate the AT1R, the cells of the blocking group were treated with losartan 30 min before adding the radiolabelled compound. At the end of the incubation period, the supernatant was aspirated and cells were washed six times with ice-cold PBS, and further removed with cell scraper and transferred to a gamma counter tube. The cellular activity was counted in a Cobra II gamma counter (Packard). […]
(§1) Supplemental material and methods
1. Binding assays in cells with [18F]FEtLos
CHO-AT1R and CHO cells ([…]) were plated in a 6-well plate overnight and then incubated for one hour at 4 °C with 10 µCi (370 kBq) of [18F]FEtLos per well, in presence or absence […]
(§2) At the end of the incubation period, the supernatant was aspirated and cells were washed six times with ice-cold PBS, and further removed with cell scraper and transferred to a gamma counter tube. The activity in the cells was counted in a Cobra II gamma counter (Packard). […]

[2] = Biodistribution at 60 min p.i. in healthy NSG mice; assay type: in vivo, NOD.Cg-Prkdc^scidIl2rg^tm1Wjl/SzJ mice; conditions: n = 3
Description: Experiments involving animals were approved by the Animal Ethics Committee of the University of British Columbia (Protocol number: A16-0128). Immunodeficient NOD.Cg-Prkdc^scidII2rg^tm1Wjl/SzJ (NSG) mice were obtained from an in-house breeding colony at the Animal Resource Centre at BC Cancer Research Facility. Mice were always divided into baseline and AT1R blocked groups to assess the AT1R binding specificity of [^18F]AMBF3Los with the co-injection of the AT1R blocker losartan (18 mg/kg, dissolved in PBS).
(§3) The in vivo AT1R binding specificity of [^18F]AMBF3Los was evaluated in healthy mice by a dynamic PET scan. Healthy NSG mice were injected in the tail vein with 6 ± 1 MBq (170 ± 38 μCi) of [^18F]AMBF3Los and a sixty-minute dynamic PET scans was carried out on a μPET/CT scanner (Inveon, Siemens) following procedures reported previously. Alternatively, [^18F]AMBF3Los was concomitantly injected with the AT1R blocker losartan (18 mg/kg) before the dynamic acquisition. Before and during the acquisition, mice were sedated with a continuous flow of isoflurane anesthesia (2% isoflurane in oxygen). The µPET/CT images were analyzed with PMOD v3.3 software (PMOD Technologies, Zürich, Switzerland). An elliptical volume-of-interest that enclosed the entire kidney was positioned manually on the PET images for the determination of the kidney volume. Then, 3-dimensional isocontours were drawn automatically. For each VOI, the percentage of the injected dose in the region of interest, divided by the injected dose per animal weight (% ID/g) could be calculated directly using the output parameters from the μPET.
After the sixty-minute dynamic PET scans, anesthetized mice were euthanized by carbon dioxide asphyxiation and blood, fat, testis, intestines, stomach, spleen, liver, pancreas, adrenal glands, kidneys, lungs, heart, muscle, bone and brain were harvested, rinsed in PBS, weighted and counted in a Perkin Elmer (Waltham, MA, USA) Wizard2 2480 automatic gamma counter to quantify the percent of injected dose per gram of tissue (% ID/g).

renal AT1R [3] = experiment: Dynamic µPET scan of healthy NSG mice; assay type: in vivo, NOD.Cg-Prkdc^scidIl2rg^tm1Wjl/SzJ mice; conditions: early time points (10, 15 and 20 min), losartan 18 mg/kg
Description: as §3

renal AT1R [4] = experiment: Autoradiography of mouse kidneys after 60-min dynamic µPET scan; assay type: in vivo, NOD.Cg-Prkdc^scidIl2rg^tm1Wjl/SzJ mice; conditions: autoradiography after 60-min dynamic µPET scan, co-injection of losartan potassium
Excerpt: Kidneys harvested from healthy NSG mice (after the biodistribution studies), were rinsed in PBS and frozen in isopentane/dry-ice bath. Ten μm-thick slides of the kidneys were obtained using a cryostat (Leica, Wetzlar, Germany), and thaw-mounted onto Superfrost Plus microscope slides (Fischerbrand from Thermo Fisher Scientific, Toronto, ON, Canada), following general procedures of the lab. Afterwards, kidney slides were exposed to a phosphor screen overnight and imaged on a Typhoon FLA 9500 scanner (GE Healthcare, Chicago, IL, USA).

[5] = Log D7.4 measurement (octanol/PBS, gamma counting); assay type: physicochemical; conditions: pH 7.4, n = 3
Description: The log D7.4 values were determined according to the literature. Aliquots (2 μL) of [^18F]FEtLos and [^18F]AMBF3Los were added to polypropylene tubes containing 3 mL of octanol and 3 mL of PBS (phosphate-buffered saline). The samples were vortexed for 20 s (2 times) and centrifuged at 600× g for 15 min. Aliquots (0.1 mL) of each layer were counted in a gamma counter to determine the log D7.4 as log (counts in octanol layer/counts in PBS layer).

renal AT1R [6] = experiment: Ex vivo µPET/CT imaging of mouse kidneys 10 min p.i.; assay type: in vivo, Balb/c Nude mice; conditions: losartan 70 mg/kg
Description: The renal AT1R binding specificity of [^18F]FEtLos was also evaluated by an ex vivo µPET/CT imaging of Balb/c Nude mice kidneys 10 min post injection (p.i.) of the tracer. […] These positive results of the ex vivo renal AT1R binding of [^18F]FEtLos might be possible due to the high AT1R density in the kidneys, that allows visualizing specific uptake in spite of the low AT1R binding affinity of [^18F]FEtLos.
Figure S12. Calibration curve for determining the molar activity of [18F]FEtLos. The curve represent the correlation between the area under the curve (AUC), recorded from the analytical HPLC profile at 254 nm, and the amount (nmol) of the product injected onto analytical HPLC.
as §1
1. Binding assays in cells with [18F]FEtLos […]
as §2
The AT1R binding specificity of [18F]FEtLos was evaluated by ex vivo µPET/CT imaging of healthy Balb/c Nude mice kidneys after ten minutes of intravenous injection of [18F]FEtLos with […]
(AT1R blocked). […] The ex vivo µPET/CT imaging was recorded using a FOV (field of view) of 60 mm and 15 min for PET scan, and 35 kV and 400 µA for CT scan.

[7] = set-up: method as in PMID 27199365; conditions: in vivo, 60 min; cited from earlier work
rat kidney AT1R = biological target: rat kidney AT1R; set-up: method as in PMID 27199365; conditions: read-out: dissociation constant, KD; cited from earlier work
[8] = AT1R Blocking (co-injection of losartan 18 mg/kg)

Ki (human AT1R): 7.9 nM
Structure (SMILES): CCCCc1nc(Cl)c(Cn2cc(C[N+](C)(C)C[B-](F)(F)F)nn2)n1Cc1ccc(-c2ccccc2-c2nnn[nH]2)cc1 [AMBF3Los, 2-butyl-4-chloro-5-[((1H-1,2,3-triazol-4-yl)-(N,N-dimethyl-ammoniomethyl-trifluoroborate)methyl)methyl]-1-[(2′-(1H-tetrazol-5-yl)biphenyl-4-yl)methyl]-1H-imidazole]

Ki (human AT1R): 2200 ± 200 nM
Structure (SMILES): CCCCc1nc(Cl)c(COCCF)n1Cc1ccc(-c2ccccc2-c2nnn[nH]2)cc1 [FEtLos, 2-butyl-4-chloro-5-(2-fluoroethoxy)methyl-1-[(2′-(1H-tetrazol-5-yl)biphenyl-4-yl)methyl]-1H-imidazole]

Structure (SMILES): CCCCc1nc(Cl)c(CO)n1Cc1ccc(-c2ccccc2-c2nn[nH]n2)cc1 [Losartan potassium, 2-butyl-4-chloro-5-hydroxymethyl-1-[(2′-(1H-tetrazol-5-yl)biphenyl-4-yl)methyl]-1H-imidazole]
log D7.4 [1]: 1.7

Uptake, Adrenal glands [2, 8]: 0.11 ± 0.06 % ID/g
Uptake, Blood [2, 8]: 0.08 ± 0.08 % ID/g
Uptake, Bone [2, 8]: 0.11 ± 0.03 % ID/g
Uptake, Brain [2, 8]: 0.005 ± 0.004 % ID/g
Uptake, Fat [2, 8]: 0.008 ± 0.002 % ID/g
Uptake, Heart [2, 8]: 0.04 ± 0.03 % ID/g
Uptake, Intestines [2, 8]: 62 ± 3 % ID/g
Uptake, Kidneys [2, 8]: 1.9 ± 1.3 % ID/g
Uptake, Liver [2, 8]: 0.6 ± 0.3 % ID/g
Uptake, Lungs [2, 8]: 0.08 ± 0.04 % ID/g
Uptake, Muscle [2, 8]: 0.05 ± 0.04 % ID/g
Uptake, Pancreas [2, 8]: 0.07 ± 0.06 % ID/g
Uptake, Spleen [2, 8]: 0.08 ± 0.03 % ID/g
Uptake, Stomach [2, 8]: 2 ± 2 % ID/g
Uptake, Testis [2, 8]: 0.029 ± 0.008 % ID/g
Uptake, Adrenal glands ([2]; Baseline): 0.1 ± 0.1 % ID/g
Uptake, Blood ([2]; Baseline): 0.05 ± 0.03 % ID/g
Uptake, Bone ([2]; Baseline): 0.11 ± 0.06 % ID/g
Uptake, Brain ([2]; Baseline): 0.006 ± 0.005 % ID/g
Uptake, Fat ([2]; Baseline): 0.011 ± 0.004 % ID/g
Uptake, Heart ([2]; Baseline): 0.03 ± 0.01 % ID/g
Uptake, Intestines ([2]; Baseline): 63 ± 9 % ID/g
Uptake, Kidneys ([2]; Baseline): 3.5 ± 1.2 % ID/g
Uptake, Liver ([2]; Baseline): 0.5 ± 0.5 % ID/g
Uptake, Lungs ([2]; Baseline): 0.06 ± 0.03 % ID/g
Uptake, Muscle ([2]; Baseline): 0.02 ± 0.01 % ID/g
Uptake, Pancreas ([2]; Baseline): 0.05 ± 0.03 % ID/g
Uptake, Spleen ([2]; Baseline): 0.2 ± 0.1 % ID/g
Uptake, Stomach ([2]; Baseline): 0.06 ± 0.05 % ID/g
Uptake, Testis ([2]; Baseline): 0.03 ± 0.01 % ID/g
log D7.4 [5]: −0.43 ± 0.02 and −0.4
Structure (SMILES): CCCCc1nc(Cl)c(Cn2cc(C[N+](C)(C)C[B-](F)(F)[18F])nn2)n1Cc1ccc(-c2ccccc2-c2nnn[nH]2)cc1 [[^18F]AMBF3Los, [^18F]ammoniomethyltrifluoroborate-losartan]
in vitro cellular uptake in CHO-AT1R cells compared to CHO cells (CHO-AT1R cells; 10 µCi per well): higher uptake
AT1R-specific binding to CHO-AT1R cells (blocking with losartan potassium) (CHO-AT1R cells): receptor-specific
renal cortex uptake in dynamic µPET with co-injected losartan potassium versus baseline (renal AT1R [3]): reduced
renal cortex activity, times smaller in mouse blocked with losartan potassium versus unblocked (renal AT1R [4]): approximately 5 times

logD ([5]; pH 7.4, octanol/PBS): 0.21 ± 0.09
Structure (SMILES): CCCCc1nc(Cl)c(COCC[18F])n1Cc1ccc(-c2ccccc2-c2nnn[nH]2)cc1 [[^18F]FEtLos, [^18F]fluoroethyl-losartan]
AT1R-specific binding to CHO-AT1R cells (blocking with losartan potassium) (CHO-AT1R cells): did not show any specific AT1R binding
AT1R-specific binding to CHO-AT1R cells (blocking with losartan potassium) (CHO-AT1R cells; listed as [18F]FEtLos): non-significant blocking effect
kidney uptake in ex vivo µPET/CT, baseline versus co-injected losartan potassium (renal AT1R [6]): high uptake in the kidneys (baseline), which was blocked

Structure (SMILES): CCCCc1nc(Cl)c(Cn2cc(CCCOc3cccnc3[18F])nn2)n1Cc1ccc(-c2ccccc2-c2nnn[nH]2)cc1 [[^18F]FPyKYNE-losartan]
liver uptake [7]: 66.7 % ID/g
Kd (rat kidney AT1R): 49.4 nM
